Laboratory results as given in patent US10597388B2, “Pyridazinone herbicides” (FMC CORPORATION, priority 2014, dated 2020).

Tests used:
Test in all cases: Test D controlled growth environment herbicide test, pre- and postemergence
Assay type in all cases: in vivo
[1] = system: ryegrass, Italian (Italian ryegrass, Lolium multiflorum)
Method in brief: (§1)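 Species sown in silt loam and sprayed preemergence, or grown in peat-based medium to 2–18 cm (1- to 4-leaf stage) and sprayed postemergence, with compounds in non-phytotoxic solvent plus surfactant. Visual injury scored versus controls after 14–21 d in a controlled environment, 0 (no effect) to 100 (complete control).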

[2] = system: bluegrass (annual bluegrass, Poa annua)
Method in brief: as §1

[3] = system: blackgrass (Alopecurus myosuroides)
Method in brief: as §1

[4] = system: foxtail, green (green foxtail, Setaria viridis)
Method in brief: as §1

[5] = system: wheat, winter (winter wheat, Triticum aestivum)
Method in brief: as §1

[6] = system: field poppy (Papaver rhoeas)
Method in brief: as §1

[7] = system: wheat, spring (spring wheat, Triticum aestivum)
Method in brief: as §1

[8] = system: speedwell (bird's-eye speedwell, Veronica persica)
Method in brief: as §1

[9] = system: lambsquarters (Chenopodium album)
Method in brief: as §1

[10] = system: mustard, wild (wild mustard, Sinapis arvensis)
Method in brief: as §1

[11] = system: barley, spring (spring barley, Hordeum vulgare)
Method in brief: as §1

[12] = system: chamomile (scentless chamomile, Matricaria inodora)
Method in brief: as §1

[13] = system: oilseed rape (Brassica napus)
Method in brief: as §1

[14] = Postemergence, 31 g ai/ha, scale 0 to 100 (0 no effect, 100 complete control)
[15] = Postemergence, 125 g ai/ha, visual rating on scale 0 (no effect) to 100 (complete control), 14 to 21 d
[16] = Postemergence, 250 g ai/ha, scale 0 to 100 (0 no effect, 100 complete control)
[17] = Preemergence, 62 g ai/ha, scale 0 to 100 (0 no effect, 100 complete control)
[18] = Preemergence, 125 g ai/ha, scale 0 to 100 (0 no effect, 100 complete control)
[19] = Preemergence, 250 g ai/ha, scale 0 to 100 (0 no effect, 100 complete control)
[20] = postemergence, 62 g ai/ha, scale 0 to 100, 0 no effect, 100 complete control

SMILES: Cc1ccc2ccc(C)c(-c3c(O)c(C)nn(C)c3=O)c2c1 [Compound 60]
- Ryegrass, Italian plant response rating [1, 14]: 80
- Plant response rating, Ryegrass, Italian [1, 15]: 90
- Plant response rating, Ryegrass, Italian [1, 16]: 95
- Plant response rating (scale of 0 to 100), Ryegrass, Italian ([1]; Preemergence, 31 g ai/ha): 100
- Plant response rating, Ryegrass, Italian [1, 17]: 100
- Plant response rating, Ryegrass, Italian [1, 18]: 100
- Plant response rating, Ryegrass, Italian [1, 19]: 100
- Plant response rating, Ryegrass, Italian [1, 20]: 90
- Bluegrass plant response rating [2, 14]: 15
- Plant response rating, Bluegrass [2, 15]: 35
- Plant response rating, Bluegrass [2, 16]: 60
- Plant response rating (scale of 0 to 100), Bluegrass ([2]; Preemergence, 31 g ai/ha): 35
- Plant response rating, Bluegrass [2, 17]: 45
- Plant response rating, Bluegrass [2, 18]: 65
- Plant response rating, Bluegrass [2, 19]: 80
- Plant response rating, Bluegrass [2, 20]: 25
- Blackgrass plant response rating [3, 14]: 75
- Plant response rating, Blackgrass [3, 15]: 85
- Plant response rating, Blackgrass [3, 16]: 90
- Plant response rating (scale of 0 to 100), Blackgrass ([3]; Preemergence, 31 g ai/ha): 90
- Plant response rating, Blackgrass [3, 17]: 95
- Plant response rating, Blackgrass [3, 18]: 100
- Plant response rating, Blackgrass [3, 19]: 100
- Plant response rating, Blackgrass [3, 20]: 80
- Foxtail, Green plant response rating [4, 14]: 35
- Plant response rating, Foxtail, Green [4, 15]: 65
- Plant response rating, Foxtail, Green [4, 16]: 75
- Plant response rating (scale of 0 to 100), Foxtail, Green ([4]; Preemergence, 31 g ai/ha): 70
- Plant response rating, Foxtail, Green [4, 17]: 80
- Plant response rating, Foxtail, Green [4, 18]: 95
- Plant response rating, Foxtail, Green [4, 19]: 100
- Plant response rating, Foxtail, Green [4, 20]: 40
- Wheat, Winter plant response rating [5, 14]: 25
- Plant response rating, Wheat, Winter [5, 15]: 35
- Plant response rating, Wheat, Winter [5, 16]: 40
- Plant response rating (scale of 0 to 100), Wheat, Winter ([5]; Preemergence, 31 g ai/ha): 10
- Plant response rating, Wheat, Winter [5, 17]: 35
- Plant response rating, Wheat, Winter [5, 18]: 55
- Plant response rating, Wheat, Winter [5, 19]: 55
- Plant response rating, Wheat, Winter [5, 20]: 30
- Field Poppy plant response rating [6, 14]: 60
- Plant response rating, Field Poppy [6, 15]: 85
- Plant response rating, Field Poppy [6, 16]: 100
- Plant response rating (scale of 0 to 100), Field Poppy ([6]; Preemergence, 31 g ai/ha): 75
- Plant response rating, Field Poppy [6, 17]: 100
- Plant response rating, Field Poppy [6, 18]: 100
- Plant response rating, Field Poppy [6, 19]: 100
- Plant response rating, Field Poppy [6, 20]: 75
- Wheat, Spring plant response rating [7, 14]: 30
- Plant response rating, Wheat, Spring [7, 15]: 40
- Plant response rating, Wheat, Spring [7, 16]: 55
- Plant response rating (scale of 0 to 100), Wheat, Spring ([7]; Preemergence, 31 g ai/ha): 35
- Plant response rating, Wheat, Spring [7, 17]: 55
- Plant response rating, Wheat, Spring [7, 18]: 65
- Plant response rating, Wheat, Spring [7, 19]: 75
- Plant response rating, Wheat, Spring [7, 20]: 35
- Speedwell plant response rating [8, 14]: 85
- Plant response rating, Speedwell [8, 15]: 90
- Plant response rating, Speedwell [8, 16]: 100
- Plant response rating (scale of 0 to 100), Speedwell ([8]; Preemergence, 31 g ai/ha): 100
- Plant response rating, Speedwell [8, 17]: 100
- Plant response rating, Speedwell [8, 18]: 100
- Plant response rating, Speedwell [8, 19]: 100
- Plant response rating, Speedwell [8, 20]: 80
- Lambsquarters plant response rating [9, 14]: 80
- Plant response rating, Lambsquarters [9, 15]: 80
- Plant response rating, Lambsquarters [9, 16]: 80
- Plant response rating (scale of 0 to 100), Lambsquarters ([9]; Preemergence, 31 g ai/ha): 100
- Plant response rating, Lambsquarters [9, 17]: 100
- Plant response rating, Lambsquarters [9, 18]: 100
- Plant response rating, Lambsquarters [9, 19]: 100
- Plant response rating, Lambsquarters [9, 20]: 80
- Mustard, Wild plant response rating [10, 14]: 75
- Plant response rating, Mustard, Wild [10, 15]: 98
- Plant response rating, Mustard, Wild [10, 16]: 100
- Plant response rating (scale of 0 to 100), Mustard, Wild ([10]; Preemergence, 31 g ai/ha): 45
- Plant response rating, Mustard, Wild [10, 17]: 70
- Plant response rating, Mustard, Wild [10, 18]: 85
- Plant response rating, Mustard, Wild [10, 19]: 90
- Plant response rating, Mustard, Wild [10, 20]: 75
- Barley, Spring plant response rating [11, 14]: 15
- Plant response rating, Barley, Spring [11, 15]: 40
- Plant response rating, Barley, Spring [11, 16]: 50
- Plant response rating (scale of 0 to 100), Barley, Spring ([11]; Preemergence, 31 g ai/ha): 5
- Plant response rating, Barley, Spring [11, 17]: 10
- Plant response rating, Barley, Spring [11, 18]: 45
- Plant response rating, Barley, Spring [11, 19]: 60
- Plant response rating, Barley, Spring [11, 20]: 25
- Chamomile plant response rating [12, 14]: 75
- Plant response rating, Chamomile [12, 15]: 100
- Plant response rating, Chamomile [12, 16]: 100
- Plant response rating (scale of 0 to 100), Chamomile ([12]; Preemergence, 31 g ai/ha): 95
- Plant response rating, Chamomile [12, 17]: 100
- Plant response rating, Chamomile [12, 18]: 100
- Plant response rating, Chamomile [12, 19]: 100
- Plant response rating, Chamomile [12, 20]: 80
- Oilseed Rape plant response rating [13, 14]: 65
- Plant response rating, Oilseed Rape [13, 15]: 75
- Plant response rating, Oilseed Rape [13, 16]: 80
- Plant response rating (scale of 0 to 100), Oilseed Rape ([13]; Preemergence, 31 g ai/ha): 0
- Plant response rating, Oilseed Rape [13, 17]: 15
- Plant response rating, Oilseed Rape [13, 18]: 40
- Plant response rating, Oilseed Rape [13, 19]: 80
- Plant response rating, Oilseed Rape [13, 20]: 70
